Columns and labels:
[1] = test system: protease produced by HUVEC that unmasks the cryptic site in type-IV collagen; assay: Unmasking of HUIV26 cryptic site in collagen type-IV by HUVEC conditioned media; format: biochemical, human
Experimental: Microtiter plates were coated with extracellular matrix components, each at a concentration of 25 μg/ml. A). Mab HUIV26 was added at a concentration of 1 μg/ml, followed 1 hour later with goat anti-mouse peroxidase labeled IgG. Denatured collagen type-I and collagen type-IV were prepared by boiling for 15 minutes before coating the plates. All data were corrected for any non-specific binding of secondary antibody. Data bars represent the mean optical density (O.D.)±standard deviations from triplicate wells. B). Microtiter wells were coated with triple helical collagen type-IV at 25 μg/ml. Concentrated (20×) HUVEC conditioned media was added to the wells in the presence or absence of EDTA, aprotinin or both and allowed to incubate for 1, 6 and 24 hours. The plates were next washed, blocked and incubated with Mab HUIV26 or control antibody. All data were corrected for non-specific secondary antibody binding. Data bars represent the mean optical density (O.D.)±standard deviations from triplicate wells. The following abbreviations are used in the figure Coll-I, collagen type-I; Coll-IV, collagen type-IV.

MDA-MB-435 tumor cells = assay: Orthotopic MDA-MB-435 human breast tumor model in mice; format: in vivo, female nude mice
Experimental: The effect of antibodies D93 and H8 in an orthotopic human breast tumor model was evaluated. MDA-MB-435 tumor cells (0.4×10^6 cells/mouse) in 50 μl PBS were orthotopically implanted in the mammary fat pad of female nude mice (five to six weeks old). When tumors reached a mean volume of approximately 50-80 mm^3, mice were randomized (at least 10/group) and intravenous treatment with D93 and H8 at 1 μg (0.05 mg/kg) per dose, 10 μg (0.5 mg/kg), 100 μg (5 mg/kg) or 200 μg (10 mg/kg), or 100 μg control antibody DP28 in 100 μl PBS, or vehicle PBS 100 μl twice per week was initiated; in some studies, an untreated group was also evaluated.
Tumor sizes were measured every 7-20 days starting at the first day of treament and continued until day 50-80 post-treatment. Tumor length (L) and width (W) were measured with calipers and tumor volumes were calculated using the formula: (L×W^2)/2 where L was the length of the tumor or the largest diameter, and W was the width or shortest diameter. Animals were euthanized at the end of the study and final tumor measurements were recorded.
The effect of combination treatment of D93 with Taxol was evaluated for eight weeks in the orthotopic MDA-MB-435 human breast tumor model in mice. MDA-MB-435 tumor cells were implanted into female nude mice as described in Example 20. Animals were randomized into seven treatment groups (n=12-13/group) with mean tumor volume 78 mm^3. D93 was administered at 100 μg/dose (5 mg/kg) twice weekly. Taxol was administered intraperitoneally at 3 or 6 mg/kg q.w. A vehicle control group of animals received PBS twice weekly and HBSS once weekly. Another control group received DP28 control antibody, administered at 100 μg/dose, twice weekly. Treatments with D93 and Taxol, as well as controls, were initiated on the same day (Day 1).
Tumor sizes were measured every 7 days starting at the first day of treatment and continued until day 55 post-treatment. Measurements were recorded as (L×W^2)/2 where L is the length of the tumor or the largest diameter, and W is the width or shortest diameter. Animals were euthanized at the end of the study and the final measurements were recorded.
In a study similar to that described in Example 21, Taxol was administered intraperitoneally at 6 or 10 mg/kg q.w. Animals were treated for 51 days.

[2] = test system: MX-1 human breast carcinoma cells; assay: Non-orthotopic MX-1 human breast tumor model; format: in vivo, SCID mice
Experimental: A study was performed in the staged subcutaneous (non-orthotopic) MX-1 breast tumor model. Female, 7 week-old, SCID mice were injected in the dorsal right flank with 0.75×10^7 MX-1 human breast carcinoma cells in 100 μl of PBS. Treatments were initiated when MX-1 tumors grew to a mean volume of 115 mm^3. The animals were randomly divided into 5 treatment groups, each having 6-7 animals per group. Animals were treated with D93 (i.v., 2×/week) and/or Taxol 100 μl volume (i.p. 2×/week), as outlined below. One control group of animals remained untreated, and another received PBS (vehicle) only. The animals were treated for 25 days.
Tumor size was measured every 7-20 days starting at first day-post randomization and continued until the end of the study. Measurements were recorded as (L×W^2)/2 where L is the length of the tumor or the largest diameter, and W is the width or shortest diameter. Animals were euthanized at the end of the study and final tumor measurements were recorded.

[3] = Table IV, D93 or DP-28 100 μg i.v. 2×/week and/or Taxol 6 mg/kg i.p. 1×/week
[4] = Table IV, Taxol 3 mg/kg i.p. 1×/week alone or with D93 100 μg i.v. 2×/week
[5] = Table V, D93 or DP-28 100 μg i.v. 2×/week and/or Taxol 6 mg/kg i.p. 1×/week
[6] = Table V, Taxol 10 mg/kg i.p. 1×/week alone or with D93 100 μg i.v. 2×/week
[7] = Table VI, D93 100 μg i.v. 2×/week and/or Taxol 6 mg/kg i.p. 2×/week

## O=C(O)CN(CCN(CC(=O)O)CC(=O)O)CC(=O)O [EDTA]
[1]; FIG. 11B
  effect on the HUVEC protease that unmasks the cryptic site in type-IV collagen: inhibited

## CC(=O)O[C@H]1C(=O)[C@@]2(C)[C@H]([C@H](OC(=O)c3ccccc3)[C@]3(O)C[C@H](OC(=O)[C@H](O)[C@@H](NC(=O)c4ccccc4)c4ccccc4)C(C)=C1C3(C)C)[C@]1(OC(C)=O)CO[C@@H]1C[C@@H]2O [Taxol, paclitaxel]
MDA-MB-435 tumor cells; Example 21, D93 100 μg/dose twice per week and/or Taxol 6 mg/kg q.w.
  inhibition of tumor volume compared to DP28: 42%
MDA-MB-435 tumor cells; Example 21, Taxol 3 mg/kg q.w. alone or plus D93 100 μg/dose twice per week
  inhibition of tumor growth compared to DP-28: 6%
MDA-MB-435 tumor cells; [3]
  Tumor volume, Day 1: 78 mm^3
  Tumor volume, Day 8: 203 mm^3
  Tumor volume, Day 27: 315 mm^3
  Tumor volume, Day 34: 399 mm^3
  Tumor volume, Day 41: 530 mm^3
  Tumor volume, Day 48: 688 mm^3
  Tumor volume, Day 54: 793 mm^3
  Tumor volume, Day 55: 787 mm^3
MDA-MB-435 tumor cells; [4]
  Tumor volume, Day 1: 78 mm^3
  Tumor volume, Day 8: 257 mm^3
  Tumor volume, Day 27: 361 mm^3
  Tumor volume, Day 34: 476 mm^3
  Tumor volume, Day 41: 604 mm^3
  Tumor volume, Day 48: 815 mm^3
  Tumor volume, Day 54: 1034 mm^3
  Tumor volume, Day 55: 1275 mm^3
MDA-MB-435 tumor cells; [5]
  Tumor volume, Day 1: 58.55 mm^3
  Tumor volume, Day 21: 210.6 mm^3
  Tumor volume, Day 32: 392.04 mm^3
  Tumor volume, Day 39: 559.9 mm^3
  Tumor volume, Day 45: 771 mm^3
  Tumor volume, Day 51: 866 mm^3
MDA-MB-435 tumor cells; [6]
  Tumor volume, Day 1: 58.6 mm^3
  Tumor volume, Day 21: 196.5 mm^3
  Tumor volume, Day 32: 361.56 mm^3
  Tumor volume, Day 39: 487.05 mm^3
  Tumor volume, Day 45: 672 mm^3
  Tumor volume, Day 51: 820 mm^3
[2]; FIG. 39, D93 100 μg and/or Taxol 6 mg/kg, 25 days
  effect on tumor growth: inhibit tumor growth
[2]; [7]
  Tumor volume, Day 1: 119 mm^3
  Tumor volume, Day 5: 224.19 mm^3
  Tumor volume, Day 12: 602 mm^3
  Tumor volume, Day 19: 761.89 mm^3
  Tumor volume, Day 26: 1196 mm^3

## aprotinin
[1]; 6 hour time point
  block of Mab HUIV26 reactivity observed in the absence of protease inhibitor: 40%
[1]; 24 hour time point
  block of Mab HUIV26 reactivity observed in the absence of protease inhibitor: 70%
[1]; one hour of incubation with HUVEC conditioned media
  effect on unmasking of cryptic site(s) in type-IV collagen: little effect

From US20050281821A1, “Method and composition for angiogenesis inhibition” (priority 1999, published 2005)
